≈ marks a conversion by molar mass, not a printed value.
How the values were obtained:
[1] = Oritavancin concentrations (PK samples) in compassionate use subject; type: in vivo, human
Procedure: In response to a compassionate use request, oritavancin was administered to a subject having bacteremia.
Treatment as of Feb. 8, 2013: oritavancin (1200 mg IV, Q2D×3 times, then QW×5 times).
PK samples have been taken.
Attending physician kept the infusion time at 4 hours.
The concentrations are consistent with expectations from modeling (modeled oritavancin concentration-time profile is attached), with oritavancin attaining peaks of about 120-130 ug/mL and troughs of around 5-10 ug/mL for the loading phase and of around 5 ug/mL for the weekly dosing phase.

E. faecalis = assay: Broth microdilution MIC, European bacteraemia isolates 2010-2012; type: cell-based, Enterococcus faecalis
Procedure: A total of 2,904 clinical strains responsible for documented bacteremia among unique hospitalized patients in 38 hospitals in 11 European Union countries. Israel, Russia, Turkey and Ukraine were included in this study (2010-2012). Isolates were submitted to a central monitoring laboratory (JMI Laboratories, North Liberty. Iowa. USA), following previously established protocols. Bacterial species identification was performed by using an automated system (Vitek®2; bioMèrieux, Hazelwood, Mo., USA) or conventional biochemical algorithms, as required.
Isolates were tested for susceptibility by broth microdilution methods following the Clinical and Laboratory Standards Institute (CLSI; M07-A9, 2012) document. Susceptibility testing was performed in cation-adjusted Mueller-Hinton broth (CA-MHB) using dry-form panels manufactured by Thermo Fisher Scientific, formerly TREK Diagnostics Systems/Sensititre (Cleveland. Ohio, USA). These panels provide results equivalent to the CLSI-approved broth microdilution method supplemented with 0.002% polysorbate-80.
Quality assurance was performed by concurrent testing of CLSI-recommended (M100-S23, 2013) strains: E. faecalis ATCC 29212 and S. aureus ATCC 29213. Interpretation of comparator MIC results was in accordance with published CLSI (M100-S23) and European Committee on Antimicrobial Susceptibility Testing (EUCAST, 2013) criteria.

[2] = E. faecalis (445), at ≦0.008 mg/L
[3] = Enterococcus faecalis, read-out: cumulative % inhibited at MIC

CN[C@H](CC(C)C)C(=O)N[C@H]1C(=O)N[C@@H](CC(N)=O)C(=O)N[C@H]2C(=O)N[C@H]3C(=O)N[C@H](C(=O)N[C@H](C(=O)O)c4cc(O)cc(O)c4-c4cc3ccc4O)[C@H](O[C@H]3C[C@](C)(N)[C@@H](O)[C@H](C)O3)c3ccc(c(Cl)c3)Oc3cc2cc(c3O[C@@H]2O[C@H](CO)[C@@H](O)[C@H](O)[C@H]2O[C@H]2C[C@](C)(NCc3ccc(-c4ccc(Cl)cc4)cc3)[C@@H](O)[C@H](C)O2)Oc2ccc(cc2Cl)[C@H]1O [Oritavancin, N-(4-(4-chlorophenyl)benzyl)A82846B]
peaks (oritavancin concentration) ([1]; 1200 mg IV, Q2D x3 then QW x5): 120 to 130 µg/mL | Oritavancin concentration ([1]; Peak - First Dose, 1200 mg IV): 114.793 µg/mL | Oritavancin concentration ([1]; Peak - Third Dose, 1200 mg IV): 133.581 µg/mL | Oritavancin concentration ([1]; Trough - First Dose, 1200 mg IV): 4.272 µg/mL | Oritavancin concentration ([1]; Trough - Second Dose, 1200 mg IV): 7.614 µg/mL | troughs (oritavancin concentration) ([1]; loading phase): 5 to 10 µg/mL | Oritavancin concentration ([1]; trough, fifth dose, 1200 mg IV): 4.584 µg/mL | Oritavancin concentration ([1]; trough, fourth dose, 1200 mg IV): 4.256 µg/mL | Oritavancin concentration ([1]; trough, sixth dose, 1200 mg IV): 4.489 µg/mL | Oritavancin concentration ([1]; trough, third dose, 1200 mg IV): 3.775 µg/mL | accumulation ([1]; weekly dosing phase): no evidence of substantial accumulation | troughs (oritavancin concentration) ([1]; weekly dosing phase): around 5 ug/mL | Number inhibited at MIC (E. faecalis; E. faecalis (445), at 0.015 mg/L): 204 | Number inhibited at MIC (E. faecalis; E. faecalis (445), at 0.03 mg/L): 89 | Number inhibited at MIC (E. faecalis; E. faecalis (445), at 0.06 mg/L): 30 | Number inhibited at MIC (E. faecalis; E. faecalis (445), at 0.12 mg/L): 13 | Number inhibited at MIC (E. faecalis; E. faecalis (445), at 0.25 mg/L): 4 | Number inhibited at MIC (E. faecalis; E. faecalis (445), at 0.5 mg/L): 1 | Number inhibited at MIC (E. faecalis; [2]): 104 | cumulative % inhibited at MIC (E. faecalis; [2]): 23.4% | MIC50 (E. faecalis; Enterococcus faecalis): 0.015 µg/mL (≈ 0.00837 µM) | MIC90 (E. faecalis; Enterococcus faecalis): 0.06 µg/mL (≈ 0.0335 µM) | MIC (E. faecalis; Enterococcus faecalis, read-out: MIC values): 0.12 to 0.5 µg/mL (≈ 0.0669 to 0.279 µM) | inhibition at 0.015 µg/mL (E. faecalis; [3]): 69.2% | inhibition at 0.03 µg/mL (E. faecalis; [3]): 89.2% | inhibition at 0.06 µg/mL (E. faecalis; [3]): 96% | inhibition at 0.12 µg/mL (E. faecalis; [3]): 98.9% | inhibition at 0.25 µg/mL (E. faecalis; [3]): 99.8% | inhibition at 0.5 µg/mL (E. faecalis; [3]): 100% | MIC 50% (E. faecalis; Table 1, E. faecalis (445)): 0.015 µg/mL (≈ 0.00837 µM) | MIC 90% (E. faecalis; Table 1, E. faecalis (445)): 0.06 µg/mL (≈ 0.0335 µM) | MIC Range (E. faecalis; Table 2, E. faecalis (445), includes four VanA-phenotype strains): ≦0.008-0.5 mg/L | concentration inhibiting all strains (E. faecalis; all E. faecalis, including resistant subsets): ≤ 0.5 mg/L

Source: patent US20160206688A1, “METHODS FOR TREATING BACTEREMIA AND OSTEOMYELITIS USING ORITAVANCIN” (THE MEDICINES COMPANY, priority 2013, published 2016)
